The record followed here is patent US11046699B2, “Pyrazolo-pyrimidin-amino-cycloalkyl compounds and their therapeutic uses” (RAPT THERAPEUTICS, INC., priority 2018, dated 2021).

Read-outs that look alike come from different tables or passages of the source.

The test concerns the target GCN2 (Homo sapiens, UniProt Q9P2K8). In words: GCN2 enzymatic endpoint assay: phosphorylation of GFP-eIF2α measured by TR-FRET (Lanthascreen). It counts as biochemical. Here is the method:
The Enzymatic assay was run as an endpoint assay to quantify the activity of the serine/threonine GCN2 kinase by way of measuring phosphorylation of its natural substrate, eiF2α.
The enzymatic reaction was initiated by incubating with 2 μM ATP and 80 nM of GFP labeled eiF2a substrate at room temperature and then stopped after 90 minutes with EDTA. The amount of phosphorylated eIF2α is determined by TR-FRET (Lanthascreen). A terbium labeled antibody associates with the phosphorylated substrate resulting in an increased TR-FRET value. Activity was calculated as the ratio of the acceptor (fluorescein) signal at 520 nm wavelength to the donor (terbium) signal 495 nm. The amount of antibody that is bound to the tracer is directly proportional to the amount of phosphorylated substrate present, and in this manner, kinase activity can be detected and measured by an increase in the TR-FRET value.
Compound addition by D300
5 μL enzyme solution in assay buffer
5 μL substrate/ATP mixture in assay buffer
5 μL stop/detection mix in antibody dilution buffer

Where [1] appears, read: tested as described in Example 77, compound and/or hydrochloride, dihydrochloride or trifluoroacetic acid salt, read-out: IC 50 Activity.
Where [2] appears, read: GCN2 biochemical IC50, 4 nM GCN2, 2 μM ATP, 80 nM GFP-eIF2α, 90 min RT, read-out: GCN2 activity.

Chain of GCN2 (Q9P2K8 whole entry): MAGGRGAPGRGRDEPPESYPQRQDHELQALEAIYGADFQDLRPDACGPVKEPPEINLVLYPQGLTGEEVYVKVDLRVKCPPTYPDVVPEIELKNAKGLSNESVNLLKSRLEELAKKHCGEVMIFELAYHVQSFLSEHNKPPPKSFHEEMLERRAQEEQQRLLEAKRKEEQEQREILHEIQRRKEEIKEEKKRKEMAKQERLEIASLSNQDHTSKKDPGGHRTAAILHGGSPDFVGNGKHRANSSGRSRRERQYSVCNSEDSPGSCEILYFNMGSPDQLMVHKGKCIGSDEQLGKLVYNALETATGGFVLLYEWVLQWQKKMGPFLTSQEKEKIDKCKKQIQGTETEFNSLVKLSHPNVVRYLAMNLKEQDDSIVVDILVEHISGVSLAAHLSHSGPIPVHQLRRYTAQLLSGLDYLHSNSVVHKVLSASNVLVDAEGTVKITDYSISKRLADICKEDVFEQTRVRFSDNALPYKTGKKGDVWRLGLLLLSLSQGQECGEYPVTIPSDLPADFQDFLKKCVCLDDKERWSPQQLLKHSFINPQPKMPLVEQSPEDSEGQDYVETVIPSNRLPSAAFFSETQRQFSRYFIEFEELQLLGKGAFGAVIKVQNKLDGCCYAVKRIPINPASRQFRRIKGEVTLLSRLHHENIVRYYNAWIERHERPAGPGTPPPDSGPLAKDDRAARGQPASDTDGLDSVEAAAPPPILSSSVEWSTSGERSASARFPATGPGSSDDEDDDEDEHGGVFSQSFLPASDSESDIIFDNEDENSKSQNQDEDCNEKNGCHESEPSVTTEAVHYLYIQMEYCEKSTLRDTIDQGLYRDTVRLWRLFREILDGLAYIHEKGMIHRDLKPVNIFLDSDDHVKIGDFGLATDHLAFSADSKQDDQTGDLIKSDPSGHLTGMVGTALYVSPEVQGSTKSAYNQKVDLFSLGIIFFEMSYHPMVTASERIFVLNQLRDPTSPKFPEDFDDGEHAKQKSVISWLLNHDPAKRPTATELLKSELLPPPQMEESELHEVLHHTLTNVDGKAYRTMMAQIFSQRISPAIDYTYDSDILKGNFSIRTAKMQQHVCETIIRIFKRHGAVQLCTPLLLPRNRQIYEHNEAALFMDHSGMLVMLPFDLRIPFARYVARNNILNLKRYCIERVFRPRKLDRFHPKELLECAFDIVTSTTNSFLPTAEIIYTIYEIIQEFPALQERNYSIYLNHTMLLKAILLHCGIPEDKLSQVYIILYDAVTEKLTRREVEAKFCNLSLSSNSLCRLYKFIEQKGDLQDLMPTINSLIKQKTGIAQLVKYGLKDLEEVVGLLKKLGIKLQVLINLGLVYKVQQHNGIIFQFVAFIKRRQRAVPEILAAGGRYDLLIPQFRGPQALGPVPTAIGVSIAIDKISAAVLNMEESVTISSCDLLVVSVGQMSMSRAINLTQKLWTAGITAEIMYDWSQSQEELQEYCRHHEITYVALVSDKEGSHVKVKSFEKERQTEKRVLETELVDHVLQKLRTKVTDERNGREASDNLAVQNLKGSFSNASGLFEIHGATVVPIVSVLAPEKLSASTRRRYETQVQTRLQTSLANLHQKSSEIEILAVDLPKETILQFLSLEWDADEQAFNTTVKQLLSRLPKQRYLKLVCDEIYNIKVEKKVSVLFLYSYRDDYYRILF

Take `C[C@@H]1C(=O)N(C)CCN1C(=O)[C@@H]1CC[C@@H](Nc2ncc3c(Br)nn(-c4cc(C#N)c5ncccc5c4)c3n2)C1` [6-[3-bromo-6-[[(1R,3R)-3-[(2R)-2,4-dimethyl-3-oxo-piperazine-1-carbonyl]cyclopentyl]amino]pyrazolo[3,4-d]pyrimidin-1-yl] quinoline-8-carbonitrile]: the IC50 under setting [1] was under 25 nM.

For the compound `CNC(=O)[C@@H]1CC[C@@H](Nc2ncc3c(Br)nn(-c4cc(OC(F)(F)F)c5ncccc5c4)c3n2)C1` [(1R,3R)-3-((3-bromo-1-(8-(trifluoro-methoxy)quinolin-6-yl)-1H-pyrazolo [3,4-d]pyrimidin-6-yl)amino)-N-methylcyclopentane-1-carboxamide], the IC50 under setting [1] was in the range of 25 to 200 nM.

Regarding `CNC(=O)[C@]1(C)CC[C@@H](Nc2ncc3c(Br)nn(-c4ccc5nnccc5c4)c3n2)C1` [Example 42, (1R,3R)-3-((3-bromo-1-(cinnolin-6-yl)-1H-pyrazolo[3,4-d]pyrimidin-6-yl)amino)-N,1-dimethylcyclopentane-1-carboxamide; 2,2,2-trifluoroacetic acid], the IC50 under setting [2] was under 25 nM.

For `CO[C@@H]1CC[C@@H](Nc2ncc3c(Br)nn(-c4cc(F)c5ncccc5c4)c3n2)C1` [3-bromo-1-(8-fluoro-6-quinolyl)-N-[(1R,3R)-3-methoxycyclopentyl]pyrazolo[3,4-d] pyrimidin-6-amine], the IC50 under setting [1] was 25 to 200 nM.

Take `Cc1nnc(-c2ccc(-n3nc(Br)c4cnc(N[C@@H]5CC[C@@H](C(=O)N6CCN(C)C(=O)C6)C5)nc43)cc2)o1` [4-((1R,3R)-3-((3-bromo-1-(4-(5-methyl-1,3,4-oxadiazol-2-yl)phenyl)-1H-pyrazolo[3,4-d]pyrimidin-6-yl)amino)cyclopentane-1-carbonyl)-1-methylpiperazin-2-one]: the IC50 under setting [1] was 25 to 200 nM.

On to `CNC(=O)[C@]1(C)CC[C@@H](Nc2ncc3c(Br)nn(-c4ccc(-c5nnc(C(C)(C)O)o5)cc4)c3n2)C1` [(1R,3R)-3-[[3-bromo-1-[4-[5-(1-hydroxy-1-methyl-ethyl)-1,3,4-oxadiazol-2-yl]phenyl]pyrazolo[3,4-d]pyrimidin-6-yl]amino]-N,1-dimethyl-cyclopentanecarboxamide], for which the IC50 under setting [1] was 25 to 200 nM.

On to `CNC(=O)C[C@H]1C[C@H](Nc2ncc3c(Br)nn(-c4cc(Cl)cc([C@H](C)N)c4)c3n2)C1` [Example 71, 2-((1S,3r)-3-((1-(3-((S)-1-aminoethyl)-5-chlorophenyl)-3-bromo-1H-pyrazolo[3,4-d]pyrimidin-6-yl)amino)cyclobutyl)-N-methylacetamide], for which the IC50 under setting [2] fell in the range of 25 to 200 nM.

With `CCS(=O)(=O)N1Cc2ccc(-n3nc(Br)c4cnc(N[C@@H]5CC[C@@](C)(C(=O)NC)C5)nc43)cc2C1` [(1R,3R)-3-[[3-bromo-1-(2-ethylsulfonyl-isoindolin-5-yl)pyrazolo[3,4-d]pyrimidin-6-yl]amino]-N,1-dimethyl-cyclopentane-carboxamide], the IC50 under setting [1] is 25 to 200 nM.

For `CN1CN(C(=O)[C@@H]2CC[C@@H](Nc3ncc4c(Br)nn(-c5cc(C#N)c6ncccc6c5)c4n3)C2)CC1=O` [6-(3-bromo-6-(((1R,3R)-3-(3-methyl-4-oxo-imidazolidine-1-carbonyl)cyclopentyl)amino)-1H-pyrazolo[3,4-d]pyrimidin-1-yl) quinoline-8-carbonitrile], the IC50 under setting [1] is 25 to 200 nM.

Turning to `CNC(=O)[C@]1(C)CC[C@@H](Nc2ncc3c(Br)nn(-c4ccc(OCCO)c(Cl)c4)c3n2)C1` [(1R,3R)-3-[[3-bromo-1-[3-chloro-4-(2-hydroxyethoxy)phenyl]pyrazolo [3,4-d]pyrimidin-6-yl]amino]-N,1-dimethyl-cyclopentanecarboxamide], under setting [1], the IC50 lay within 25 to 200 nM.

As to `CNC(=O)[C@@H]1CC[C@@H](Nc2ncc3c(Br)nn(-c4cc(OC)c5ncccc5c4)c3n2)C1` [(1R,3R)-3-[[3-bromo-1-(8-methoxy-6-quinolyl)pyrazolo[3,4-d]pyrimidin-6-yl]amino]-N-methyl-cyclopentanecarboxamide], the IC50 under setting [1] is under 25 nM.

Consider `CNC(=O)[C@]1(C)CC[C@@H](Nc2ncc3c(Br)nn(-c4cc(CCNC(=O)C(C)C)c5ncccc5c4)c3n2)C1` [(1R,3R)-3-[[3-bromo-1-[8-[2-(2-methyl-propanoylamino)ethyl]-6-quinolyl]pyrazolo [3,4-d]pyrimidin-6-yl]amino]-N,1-dimethyl-cyclopentanecarboxamide], for which, under setting [1], the IC50 lay in the range of 25 to 200 nM.

On to `CNC(=O)C1(C)CC[C@@H](Nc2ncc3c(Br)nn(-c4cccc(CCCO)c4)c3n2)C1` (stereo partly drawn) [(3R)-3-[[3-bromo-1-[3-(3-hydroxypropyl)phenyl]pyrazolo[3,4-d]pyrimidin-6-yl]amino]-N,1-dimethyl-cyclopentane-carboxamide], for which, under setting [1], the IC50 is 25 to 200 nM.

Regarding `CNC(=O)[C@@]1(C)CC[C@@H](Nc2ncc3c(I)nn(-c4ccc(-c5nnc(C)o5)cc4)c3n2)C1` [(1S,3R)-3-[[3-iodo-1-[4-(5-methyl-1,3,4-oxadiazol-2-yl)phenyl]pyrazolo[3,4-d]pyrimidin-6-yl]amino]-N,1-dimethyl-cyclopentanecarboxamide], the IC50 under setting [1] lay in the range of 25 to 200 nM.

As to `CNS(=O)(=O)[C@@H]1CC[C@@H](Nc2ncc3c(Br)nn(-c4ccc5ncccc5c4)c3n2)C1` (single isomer, unassigned) [Example 16], the IC50 under setting [2] is 25 to 200 nM.

Turning to `CNC(=O)[C@]1(C)CC[C@@H](Nc2ncc3c(Br)nn(-c4cc(F)c5ncc(C(C)(C)N)cc5c4)c3n2)C1` [(1R,3R)-3-[[1-[3-(1-amino-1-methyl-ethyl)-8-fluoro-6-quinolyl]-3-bromo-pyrazolo [3,4-d]pyrimidin-6-yl]amino]-N,1-dimethyl-cyclopentanecarboxamide], the IC50 under setting [1] was in the range of 25 to 200 nM.

Regarding `Cc1nnc(-c2ccc(-n3nc(Br)c4cnc(N[C@@H]5CC[C@@](C)(C(=O)N6CCOCC6)C5)nc43)cc2CCC#N)s1`, the IC50 under setting [1] fell in the range of 25 to 200 nM.

With `CNC(=O)[C@]1(C)CC[C@@H](Nc2ncc3c(Br)nn(-c4ccc5c(c4)C(=O)NC5=O)c3n2)C1` [(1R,3R)-3-[[3-bromo-1-(1,3-dioxo-isoindolin-5-yl)pyrazolo[3,4-d]pyrimidin-6-yl]amino]-N,1-dimethyl-cyclopentanecarboxamide], the IC50 under setting [1] lay within 25 to 200 nM.

As to `C[C@@]1(C(=O)NCCO)CC[C@@H](Nc2ncc3c(Br)nn(-c4cc(F)c5ncccc5c4)c3n2)C1` [(1R,3R)-3-[[3-bromo-1-(8-fluoro-6-quinolyl)pyrazolo[3,4-d]pyrimidin-6-yl]amino]-N-(2-hydroxyethyl)-1-methyl-cyclopentane-carboxamide], the IC50 under setting [1] is under 25 nM.

For `CN1CN(C(=O)[C@]2(C)CC[C@@H](Nc3ncc4c(Br)nn(-c5cc(F)c6ncccc6c5)c4n3)C2)CC1=O` [1-[(1R,3R)-3-[[3-bromo-1-(8-fluoro-6-quinolyl)pyrazolo[3,4-d]pyrimidin-6-yl]amino]-1-methyl-cyclopentanecarbonyl]-3-methyl-imidazolidin-4-one], the IC50 under setting [1] is under 25 nM.

`CC(C)OCCNC(=O)[C@@H]1CC[C@@H](Nc2ncc3c(Br)nn(-c4ccc5ncccc5c4)c3n2)C1` [(1R,3R)-3-((3-bromo-1-(quinolin-6-yl)-1H-pyrazolo[3,4-d]pyrimidin-6-yl)amino)-N-(2-isopropoxyethyl)cyclopentane-1-carboxamide]: the IC50 under setting [1] was in the range of 200 to 500 nM.

Consider `O=C1CN(C(=O)[C@@H]2CC[C@@H](Nc3ncc4c(Br)nn(-c5cc(F)c6ncccc6c5)c4n3)C2)CN1`, for which the IC50 under setting [1] lay within 25 to 200 nM.
